Activity calls are given as the source filed them. For most assays here, no stated cut-off is given here; in the data, actives have a measured EC50 and inactives only a lower limit.
Tests used:
[1] = Luminescence Cell-Based Dose Retest to Confirm Inhibitors of Cancer Stem Cells. [Related pubchem assays (depositor defined):AID2717, AID2721]; type: functional; settings: Homo sapiens
[2] = target: T1, Heat shock factor protein 1 (Mus musculus, UniProt P38532); test: inhibition of MG132-induced HSE-luciferase signal, confirmation, cell-based, NIH3T3, luminescence, dose retest (AID 2382); type: functional;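 further: NIH3T3 fibroblasts with HSF1-driven luciferase reporter stressed by proteasome inhibitor MG132; luminescence from HSF1-driven luciferase expression after 8 hours of MG132 stress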
T1 sequence (P38532 whole entry): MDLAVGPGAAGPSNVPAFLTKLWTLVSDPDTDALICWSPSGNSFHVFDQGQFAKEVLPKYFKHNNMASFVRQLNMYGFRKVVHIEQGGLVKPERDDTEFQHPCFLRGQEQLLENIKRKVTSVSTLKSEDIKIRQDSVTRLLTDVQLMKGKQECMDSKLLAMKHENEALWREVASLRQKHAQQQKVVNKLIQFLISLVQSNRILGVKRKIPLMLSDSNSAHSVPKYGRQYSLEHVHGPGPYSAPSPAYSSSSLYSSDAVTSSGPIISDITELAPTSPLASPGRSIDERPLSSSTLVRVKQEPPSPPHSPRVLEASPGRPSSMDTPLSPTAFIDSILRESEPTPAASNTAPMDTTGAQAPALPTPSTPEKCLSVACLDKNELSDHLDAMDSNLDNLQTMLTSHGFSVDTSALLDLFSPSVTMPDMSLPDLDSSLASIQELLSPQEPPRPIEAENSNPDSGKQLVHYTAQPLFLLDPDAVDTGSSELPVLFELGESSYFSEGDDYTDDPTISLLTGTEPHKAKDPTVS

[3] = inhibitors of firefly luciferase expression or activity, dose response, H4 neuroglioma cells, luminescence (AID 1990); type: functional, cell-based
[4] = Luminescence Cell-Based Dose Response HTS to Identify Inhibitors of 5'UTR Stem-Loop Driven Prion Protein mRNA Translation in H4 Neuroglioblastoma Cells. [Related pubchem assays: 1827 (Project Summary), 1813 (Primary HTS)]; type: functional
[5] = inhibitors of SNCA 5'UTR-driven reporter translation, confirmation, H4 neuroglioma cells, luminescence (AID 1988); type: functional, cell-based
[6] = HEp-2 cell cytotoxicity, dose response, cytotoxicity control for RSV inhibitor project, HTS (AID 2410); type: functional; settings: human respiratory syncytial virus
[7] = Luminescence Cell-Based Dose Confirmation HTS to Identify Activators of 5'UTR Stem-Loop Driven Alpha-Synuclein mRNA Translation in H4 Neuroglioblastoma Cells. [Related pubchem assays: 1829 (Project Summary), 1814 (Primary HTS)]; type: functional
[8] = Luminescence Cell-Based Dose Response HTS to Identify Activators of Luciferase Translation or Activity in H4 […] Cells. [Related pubchem assays: 1829 (Project Summary), 1814 (Primary HTS)]; type: functional
H4 = test: Luminescence Cell-Based Dose Response HTS to Identify Activators of 5'UTR Stem-Loop Driven Prion Protein mRNA Translation in H4 Neuroglioblastoma Cells. [Related pubchem assays: 1829 (Project Summary), 1814 (Primary HTS)]; type: functional; settings: Homo sapiens
Protein skinhead-1 = target: T2, Protein skinhead-1 (Caenorhabditis elegans, UniProt P34707); type: functional
T2 sequence (P34707 whole entry): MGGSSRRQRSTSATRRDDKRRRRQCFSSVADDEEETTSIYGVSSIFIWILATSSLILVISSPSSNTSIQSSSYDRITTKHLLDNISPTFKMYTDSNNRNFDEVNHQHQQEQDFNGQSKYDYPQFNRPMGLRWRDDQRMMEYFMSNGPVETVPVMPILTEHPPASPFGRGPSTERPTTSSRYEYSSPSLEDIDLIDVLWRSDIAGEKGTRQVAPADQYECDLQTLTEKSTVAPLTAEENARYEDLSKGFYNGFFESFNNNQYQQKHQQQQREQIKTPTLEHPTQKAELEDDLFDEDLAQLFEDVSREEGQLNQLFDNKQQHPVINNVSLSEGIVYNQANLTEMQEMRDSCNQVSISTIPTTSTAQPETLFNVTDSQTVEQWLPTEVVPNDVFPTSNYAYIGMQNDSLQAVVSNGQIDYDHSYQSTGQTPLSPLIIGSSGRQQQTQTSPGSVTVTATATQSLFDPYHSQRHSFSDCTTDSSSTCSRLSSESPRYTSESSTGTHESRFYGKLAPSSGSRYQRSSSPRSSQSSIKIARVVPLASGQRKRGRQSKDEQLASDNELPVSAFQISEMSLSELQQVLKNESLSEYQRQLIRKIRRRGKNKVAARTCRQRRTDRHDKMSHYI

INS1 = test: beta cell apoptosis inhibitors, cytokine rescue, dose response, luminescence, retest (AID 449756); type: functional, cell-based; settings: Rattus norvegicus;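 further: cell death triggered by IL-1 beta plus TNF-alpha plus IFN-gamma mixture; protective hits raise ATP signal compared with cytokine alone wells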
[9] = inhibitors of intracellular T. cruzi replication, confirmation, NIH3T3 host cells, beta-gal luminescence (AID 2044); type: functional, cell-based;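 further: intracellular parasites grown in NIH/3T3 mouse fibroblasts as host cells; luminescent beta-galactosidase reporter signal from transgenic T. cruzi replicating inside host cells; inhibitors lower the luminescence signal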
[10] = cytotoxicity toward NIH3T3 fibroblasts, dose response, counter-screen, cell-based, ATP luminescence, mouse fibroblasts (AID 2010); type: functional;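 further: cells exposed to compound for about 90 hours before reading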
[11] = system: Streptococcus sp. 'group A'; test: growth inhibition of control SK(-) GAS strain, dose response, counter-screen for streptokinase expression inhibitor project, luminescence, kanamycin, BacTiterGlo, confirmation (AID 1900); type: functional, organism-based
Streptokinase A = target: T3, Streptokinase A (Streptococcus pyogenes serotype M1, UniProt P10520); test: S. pyogenes streptokinase expression inhibitors, potency, dose response, plasminogen activation absorbance, OD405 (AID 1914); type: functional, Streptococcus pyogenes M1 GAS;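 further: secreted streptokinase activity via plasminogen activation per viability signal from cell pellet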
T3 sequence (P10520 whole entry): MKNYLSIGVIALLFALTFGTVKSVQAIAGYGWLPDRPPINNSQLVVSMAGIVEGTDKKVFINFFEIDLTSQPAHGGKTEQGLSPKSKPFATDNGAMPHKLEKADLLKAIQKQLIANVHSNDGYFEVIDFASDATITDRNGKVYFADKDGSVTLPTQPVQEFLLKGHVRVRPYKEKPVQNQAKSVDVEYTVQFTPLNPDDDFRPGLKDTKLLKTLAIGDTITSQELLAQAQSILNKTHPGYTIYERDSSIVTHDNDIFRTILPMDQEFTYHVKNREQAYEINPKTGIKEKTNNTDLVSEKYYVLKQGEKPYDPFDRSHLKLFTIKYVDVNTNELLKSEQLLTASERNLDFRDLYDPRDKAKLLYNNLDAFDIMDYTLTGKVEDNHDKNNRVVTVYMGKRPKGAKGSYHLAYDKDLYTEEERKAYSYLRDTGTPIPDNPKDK

Streptococcus = test: Group A Streptococcus viability loss, dose response, counter-screen for streptokinase expression inhibitor project, luminescence, BacTiterGlo (AID 1915); type: functional, organism-based;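 further: potency for reduction of bacterial viability or growth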

O=Nc1c(O)n(Cc2ccc(Cl)cc2Cl)c2ccccc12
AC50 [1]: 6.86 µM (active)

COc1cccc(/C=C/c2nc(C#N)c(NCC(C)C)o2)c1
AC50 [1]: 2.19 µM (active)

CC(=O)Nc1ccc(SCC(=O)N2CCN(S(=O)(=O)c3ccccc3)CC2)cc1
EC50 [2]: > 195 µM (not active)

CCCn1c2ccccc2c2nnc(SCC(=O)Nc3c(C)n(C)n(-c4ccccc4)c3=O)nc21
EC50 [3]: > 120 µM (not active) | EC50 [4]: > 120 µM (not active) | EC50 [5]: > 120 µM (not active)

O=C(Nc1ccc(Cl)c(Cl)c1)c1ccc2c(c1)OCO2
CC50 [6]: > 50 µM (active)

O=C1Nc2ccccc2/C1=C\c1cccn1-c1ccc(OC(F)(F)F)cc1
EC50 [3]: 15.7 µM (active) | EC50 [4]: > 120 µM (not active) | EC50 [5]: 15.4 µM (active)

CC(C)c1nnc(NC(=O)C2CCN(C(=O)c3ccco3)CC2)s1
EC50 [2]: > 195 µM (not active)

CC(=O)c1ccc(NC(=O)c2cccc(S(=O)(=O)N3CCN(C)CC3)c2)cc1
EC50 [7]: 15.5 µM (active) | EC50 [8]: 40.6 µM (active) | EC50 (H4): 20.7 µM (active)

CC(=O)c1ccc(NC(=O)CCc2c(C)nc3ncnn3c2C)cc1
EC50 [7]: 73.6 µM (active) | EC50 [8]: 8.11 µM (active) | EC50 (H4): 37.1 µM (active)

C=CCn1c(-c2ccccc2)ccc(C#N)c1=O
IC50 (Protein skinhead-1): 15.8 µM (active)

Cc1cccc(N(C(=O)c2nsc(Cl)c2Cl)C(C(=O)NC2CCCC2)c2ccc(O)cc2)c1 (stereo unspecified)
EC50 [7]: 0.548 µM (active) | EC50 [8]: 1.09 µM (active) | EC50 (H4): > 120 µM (not active)

CCC(C)(C)C(=O)Nc1ncc(S(=O)(=O)c2ccc([N+](=O)[O-])cc2)s1
IC50 (Protein skinhead-1): > 100 µM (inactive)

c1ccc(Cc2nnc3sc(-c4cccs4)nn23)cc1
EC50 [2]: > 195 µM (not active)

CC(C)(C)c1ccc(NC(=O)c2c(F)cccc2Cl)cc1
CC50 [6]: 43.5 µM (active)

CCc1ccccc1N=C(S)N=C(N)Nc1nc(C)c2cc(C)ccc2n1
EC50 [3]: > 120 µM (not active) | EC50 [4]: > 120 µM (not active) | EC50 [5]: 29.4 µM (active)

O=C(NNC(=O)c1ccccc1OCc1ccccc1)c1ccccc1O
EC50 [3]: 3.92 µM (active) | EC50 [4]: 11.6 µM (active) | EC50 [5]: 5.27 µM (active) | AC50 (INS1): 2.76 µM (active)

c1ccc(-c2ccc(-n3ccnc3)cc2)cc1
EC50 [9]: > 30 µM (not active) | EC50 [10]: > 30 µM (not active) | IC50 (Protein skinhead-1): 6.11 µM (active)

CCOC(=O)C1=C(c2ccccc2)OC(N)=C(C#N)C1C(C)C (stereo unspecified)
EC50 [7]: > 120 µM (not active) | EC50 [8]: > 120 µM (not active) | EC50 (H4): > 120 µM (not active)

Cc1ccc(NC(=O)Cn2nnc3ccccc32)cc1
EC50 [7]: 17.5 µM (active) | EC50 [8]: > 120 µM (not active) | EC50 (H4): 111 µM (active)

COc1ccc(CC(=O)NCc2ccc3c(c2)cc(C)n3C)cc1
IC50 (Protein skinhead-1): > 100 µM (inactive)

CCc1ccc2c(c1)c1nnc(NN)nc1n2C
EC50 [3]: > 120 µM (not active) | EC50 [4]: > 120 µM (not active) | EC50 [5]: > 120 µM (not active)

CCOC(=O)c1c(C)n(C)c2ccc(OCC(O)Cn3nc(C)c(Br)c3C)cc12 (stereo unspecified)
CC50 [6]: 15.6 µM (active) | EC50 [11]: 15.6 µM (active) | EC50 (Streptokinase A): > 150 µM (not active) | EC50 (Streptococcus): 38.1 µM (active)

Fc1ccc(-c2nnc(Cc3ccc(Cl)cc3)o2)cc1
IC50 (Protein skinhead-1): 20.2 µM (active)

CCOc1ccc(C(=O)OCC(=O)c2c(N)n(C)c(=O)n(C)c2=O)cc1OCC
EC50 [7]: > 120 µM (not active) | EC50 [8]: > 120 µM (not active) | EC50 (H4): 46.7 µM (inconclusive)

Clc1cc(Cl)c2nc(N3CCCC3)sc2c1
IC50 (Protein skinhead-1): 27.1 µM (active)

O=C(Nc1ccc(C(O)(C(F)(F)F)C(F)(F)F)cc1)c1ccc(Cl)c([N+](=O)[O-])c1
AC50 [1]: 5.95 µM (active)

Clc1ccc(-c2nnc(SCc3ccon3)o2)c(Cl)c1
IC50 (Protein skinhead-1): 60.2 µM (inactive)

CCN(CC)C(=O)c1sc(NC(=O)Cc2ccc(OC)cc2)c(C#N)c1C
IC50 (Protein skinhead-1): > 100 µM (inactive)

CC(=O)n1cc(-c2ccncc2)c2ccccc21
CC50 [6]: 31.5 µM (active)

NC(=O)CC(NC(=O)Cc1cccc2ccccc12)c1ccc(NC2CC3CCC2C3)c([N+](=O)[O-])c1 (stereo unspecified)
CC50 [6]: > 50 µM (active)

O=C(C[C@H]1C[C@H](C(=O)N2CCOCC2)[C@@]2(CCC3CCCC3)c3[nH]c4cc(-c5ccco5)ccc4c3CCN2C1=O)NCc1ccco1
IC50 (Protein skinhead-1): > 100 µM (inactive)

COc1cc(/C=N/NC(=S)NC2CC3CC2C2C=CCC32)ccc1O (stereo unspecified)
EC50 [7]: > 120 µM (not active) | EC50 [8]: 69.7 µM (active) | EC50 (H4): > 120 µM (not active)

O=C(NC1CCCC1)C1C(c2ccc(C(F)(F)F)cc2)=Nc2ccccc2N1C(=O)c1ccco1 (stereo unspecified)
IC50 (Protein skinhead-1): > 100 µM (inactive)

Clc1ccc(-c2nc(CSc3ccccn3)cs2)cc1
IC50 (Protein skinhead-1): 59.1 µM (inactive)

Oc1nc(N/N=C/c2ccccc2Br)nnc1-c1ccccc1
CC50 [6]: 30.9 µM (active)

COc1ccc(O)c(/C=N/Nc2nc(C)cc(-c3ccccc3)n2)c1
CC50 [6]: 18.1 µM (active)

COc1ccccc1-c1cc(C(=O)N/N=C/c2ccc(C)s2)c2ccccc2n1
CC50 [6]: 32.2 µM (active)

Cc1nn(-c2ccccc2)c(C)c1/C=N/n1c(S)nnc1-c1ccc(C(C)(C)C)cc1
EC50 [11]: 3.13 µM (active) | EC50 (Streptokinase A): > 150 µM (not active) | EC50 (Streptococcus): 5.35 µM (active) | AC50 [1]: 5.78 µM (active)

— ChEMBL document CHEMBL1201862, “PubChem BioAssay data set” (2004)
